Results taken from patent US5972636A (priority 1997, dated 1999).
“Also recorded” adds a separate entry of the source. Like-named read-outs stand apart in the source and are kept apart here.

Legend:
[1] = test system: proteasome-multipain complex formation; type: biochemical, rabbit
[2] = test system: 1500 kDa complex (proteasome-multipain); details: for Realtive Activity (%) Complex, Ub-lysozyme degradation: None = 100, 2 mM of the nucleotide or 10 mM PPi
[3] = test system: new protease (multipain) from skeletal muscle; details: for Relative activity (%), degradation of Ub-125I-lysozyme by the new activity: None = 100, 2 mM of the nucleotides or 10 mM PPi, 37° C. 1 hour
[4] = test system: ATP-ubiquitin-dependent proteolytic system; assay: ATP-ubiquitin-activated proteolysis in extracts (Fraction II) of psoas muscle; type: biochemical, rabbit
Excerpt: Psoas muscles from fed and fasted rabbits were used to obtain sufficient material for assay of the ATP-dependent system in cell-free extracts. Fasted rabbits were deprived of food for sufficient time to cause a weight loss of about 20% (similar to that seen in rats deprived of food for 1 day). The animals were anesthesized, and their psoas muscles dissected and homogenized as described previously. Fagan, J. M., et al., J. Biol. Chem., 261: 5705-5713 (1986).
After centrifugation at 10,000×g and then at 100,000×g, the muscle extracts were fractionated on DE52 cellulose to remove ubiquitin and most cell proteins, as described previously. Han, H. Q. et al., Federation Proc, 2:A564 (1988) and Waxman, L., et al., J. Biol. Chem., 262:2451-2457 (1987). The fraction containing the ATP-ubiquitin-dependent proteolytic system (Herskho, A., J. Biol. Chem., 263:15237-15240 (1988); Rechsteiner, M., Ann. Rev. Cell Biol., 3:1-30 (1987) and Fagan, J. M., et al. Biochem J., 243:335-343 (1987)) was eluted with 0.5M NaCl ("Fraction II"), dialyzed against a buffer containing Tris (50 mM, pH7.8), dithiothreitol (1 mM), and 20% glycerol, and concentrated before assay of activity. Degradation of endogenous muscle proteins was assayed by measuring the production of free tyrosine, which was determined fluorometrically after precipitation of proteins with trichloroacetic acid. Tischler, M. et al., J. Biol, Chem., 257:1613-1621 (1982) and Fulks, R., et al., J. Biol. Chem., 250:290-298 (1975). In addition, the degradation of ^14 C-casein was assayed by measuring the production of acid-soluble radioactivity. Waxman, L., et al., J. Biol. Chem., 262:2451-2457 (1987) and Fagan, J. M., Biochem J., 243:335-343 (1987).

denervated soleus = type: cell-based, rat
[5] = test system: fraction II (ATP-dependent degradative system); assay: Hydrolysis of Ub-125I-lysozyme by muscle fraction II; type: biochemical, rabbit
Method: All enzymatic assays were linear, except where noted (see below). When present, ATP was 2 mM in assays. Unless otherwise stated, in all assays, 50 μl aliquots of the fraction from the column or of the purified protease (10 μg)were incubated in 200 μl containing 50 mM TRIS-HCl (pH 7.8), 10 mM MgCl2, 1 mM DTT, and 5 μg of the radioactive proteins, 0.5 μg of Ub-conjugates, or 0.5 mM of the fluorogenic peptide. For assays of proteolysis, the reaction mixtures contained approximately 15,000 cpm of Ub-lysozyme or labeled proteins. Degradation of ^125 I-lysozyme, Ub-^125 I-lysozyme, ^14 C-casein, ^14 C-hemoglobin and OH/O2^- treated ^14 C-hemoglobin were assayed by measuring the production of acid-soluble radioactivity after 60 min of incubation at 37° C. Ub-^125 I-lysozyme was prepared using liver fraction II, according to the method of Hough and Rechsteiner. Hough et al., J. Biol. Chem. 261:2400-2408 (1986), Hough, R. and Rechsteiner, M. J. Biol. Chem. 261:2391-2399 (1986). ^125 I-lysozyme and Ub were prepared as described previously. Waxman et al., J. Biol. Chem. 262:2451-2457 (1987), Fagan et al., BioChem. J. 243:335-343 (1987). The concentration of conjugates was calculated based on the specific radioactivity of the ^125 I-lysxozyme used for conjugate synthesis. One unit of sLLVT-MCA represents 10 nmol of MCA produced in 30 min. […]

Ub-lysozyme conjugates = assay: Degradation of Ub-lysozyme conjugates in 1st and 2nd hour with additions at 60 min; type: biochemical, rabbit; details: substance added at 60 min, cystatin 4 μM
[6] = biological target: T1, proteasome from skeletal muscle (Oryctolagus cuniculus, UniProt G1T4Q9); type: biochemical, rabbit
T1 construct: from tissue; host or cells: rabbit skeletal (psoas) muscle, proteasome fraction after Mono Q and Superose 6

`Nc1ncnc2c1ncn2[C@@H]1O[C@H](COP(=O)(O)OP(=O)(O)OP(=O)(O)O)[C@@H](O)[C@H]1O` [ATP] was tested, and the “effect on formation of the proteasome-multipain complex, in words” value (shortened to “effect on formation”) ([1]; DFP 1 mM or cystatin 4 μM preincubated 10 min, AMP-PNP in place of ATP) was “allowed formation of a 1300 kDa complex”, the “ATP concentration of maximal stimulation of conjugate degradation, 1500 kDa complex” value [2] was “about 0.7 mM” and the “stimulation of degradation of Ub-125I-lysozyme, 125I-lysozyme, sLLVT-MCA or casein by the complex” value ([2]; 1500 kda proteasome-multipain complex) was 3-5 fold. For the same molecule, the “Realtive Activity (%) Complex, Ub-lysozyme degradation” value ([2]; Table VIII) was 458%, the Km ([2]; read-out: Km for ATP, 1500 kDa complex, Ub-conjugate degradation) was no more than 300 µM and the “stimulation of Ub-lysozyme hydrolysis by the new protease” value ([3]; ATP 2 mM where stated, 60 min) was 5 fold. For the same molecule, the “stimulation of lysozyme degradation by the new protease” value ([3]; ATP 2 mM where stated, 60 min) was 3 fold, the “Relative activity (%), degradation of Ub-125I-lysozyme by the new activity” value ([3]; Table III) was 743% and the Km ([3]; read-out: Km for ATP, multipain, Ub-conjugate degradation) was no more than 300 µM. The “14C-Casein Hydrolysis” value [4] was 2.3 ± 0.2 ug casein hydrolyzed/1 hr, the “Hydrolysis of Endogenous Proteins” value ([4]; Fasted rabbits, No addition 2.0 ± 0.1, ATP 5 mM, ubiquitin 15 μM) was 10.8 ± 2.1 nmol try released/2 hr and the “Hydrolysis of Endogenous Proteins” value ([4]; Fed rabbits, No addition 0.6 ± 0.1, ATP 5 mM, ubiquitin 15 μM) was 5.7 ± 0.9 nmol try released/2 hr. For the same molecule, the “14C-Casein Hydrolysis” value ([4]; Fed rabbits, No addition 1.1 ± 0.2, ATP 5 mM, ubiquitin 15 μM) was 1.5 ± 0.2 ug casein hydrolyzed/1 hr.

`CN` [Methylamine] was tested, and the “Myofibrillar Proteins 3-Methylhistidine Release” value (denervated soleus; None = 5.11 ± 0.21, as E65) was 5.05 ± 0.19 pmol/mg/2h and the “Total Proteins Tyrosine Release” value (denervated soleus; soleus three days after section of the sciatic nerve, None = 328 ± 10, methylamine 10 μM, E64c 50 μM, dinitrophenol 0.1 mM, 2-deoxyglucose 5 mM) was 330 ± 11 pmol/mg/2h.

With `Nc1ncnc2c1ncn2[C@@H]1O[C@H](COP(=O)(O)CP(=O)(O)OP(=O)(O)O)[C@@H](O)[C@H]1O` [AMP-CPP] the “effect on degradation of Ub-conjugated proteins by fraction II, in words” value [5] was “did not stimulate the degradation of Ub-conjugated proteins”.

With `Nc1ncnc2c1ncn2[C@@H]1O[C@H](COP(=O)(O)OP(=O)(O)NP(=O)(O)O)[C@@H](O)[C@H]1O` [AMP-PNP, adenyl 5'-oyl-imidodiphosphate] the “effect on formation” value [1] was “completely prevented complex formation”, the “effect of nucleotides on Ub-125I-lysozyme hydrolysis by the complex, in words” value ([2]; Table VIII) was “No stimulation” and the “Realtive Activity (%) Complex, Ub-lysozyme degradation” value ([2]; Table VIII) was 109%. The “effect of nucleotides on Ub-125I-lysozyme hydrolysis by the purified enzyme, in words” value ([3]; Table III) was “No stimulation”, the “Relative activity (%), degradation of Ub-125I-lysozyme by the new activity” value ([3]; Table III) was 90% and the “effect on degradation of Ub-conjugated proteins by fraction II, in words” value [5] was “did not stimulate the degradation of Ub-conjugated proteins”.

B1: Cystatin A: egg-white cystatin, a potent inhibitor of many papain-like thiol proteinases (protein, UniProt P01040 1-98, looked up)
Cystatin-A: MIPGGLSEAKPATPEIQEIVDKVKPQLEEKTNETYGKLEAVQYKTQVVAGTNYYIKVRAGDNKYMHLKVFKSLPGQNEDLVLTGYQVDKNKDDELTGF
With B1 the “effect on formation” value [1] was “did not occur; also recorded: blocked”, the “Realtive Activity (%) Complex (Ub-125I-Lysozyme)” value [2] was 35% and the “inhibition of conjugate breakdown by the complex” value [2] was 65%. The “Realtive Activity (%) Multipain” value [3] was 30%, the “Relative activity (%) NEW PROTEASE OH/O2 - treated hemoglobin” value [3] was 27% and the “Relative activity (%) NEW PROTEASE Ub-lysozyme” value [3] was 30%. The “Relative activity (%) NEW PROTEASE lysozyme” value [3] was 24%, the Ki ([3]; read-out: Ki, inhibition of proteolysis by multipain) was less than 1000 nM and the “Degradation in 2nd hour” value (Ub-lysozyme conjugates; Complex added initially, None = 65) was 18 ng. The “Degradation in 2nd hour” value (Ub-lysozyme conjugates; Multipain added initially, None = 74) was 4 ng, the “Realtive Activity (%) Proteasome (sLLVT-MCA)” value [6] was 93% and the “Relative activity (%) […]-MCA” value [6] was 93%.
